Measurements as given in US20130039956A1, “USE OF NITROCARBOXYLIC ACIDS FOR THE TREATMENT, DIAGNOSIS AND PROPHYLAXIS OF AGGRESSIVE HEALING PATTERNS” (priority 2010, published 2013).

What was measured:
pericardial strips = assay: Cold induced injury in a whole tissue ex-vivo model (pericardium); type: cell-based, Wistar rats; conditions: 200 μmol, 10 min, two cooling cycles; compared with native FA; note: key: 0: not superior to native FA (control); +: Superior to native FA; ++: superior to both; +++: outstanding effect
Source text: To determine whether nitrated fatty acids can be used to preserve cells and tissues from cold or cryoinjury, an in vitro model utilizing murine epicardium was established. The experimental set-up should reduce the possibility of ischemia or reperfusion injury to a minimum, but at the same time allow differentiation of the contribution of ischemia/reperfusion injury-triggered cell death, which is known to occur almost exclusively via apoptosis, whereas cell death induced by cold injury almost exclusively results in necrosis.
The pericardial sac was carefully resected in 24 anesthetized Wistar rats (180-270 g) of either sex. Care was taken to grasp the pericardium with a forceps only at the cutting edges and reduce traumatization of the central portions of the pericardium to a minimum. After resection, the cutting edge and the former apex area of the pericardium were dissected, as to obtain flat tissue strips which were placed immediately in the culture medium (DMEM) containing 10% FCS and antibiotics (penicillin, streptomycin). Tissue samples were cultured in an oxygen atmosphere at 18° C. for 2 days. […] Then the pericardial strips were cut into 4 pieces of equal size. One piece was further cultivated at 37° C. without undergoing the cooling cycles, thus, serving as the control. In each of three investigations, one piece was bathed in a solution (0.9% saline and 1% SDS) containing 200 μmol nitro-fatty acid or contained 200 μmol of the corresponding native fatty acid, for 10 min at a temperature of 18° C. One piece of pericardium was bathed in a solution without fatty acids under otherwise identical conditions. All samples were cooled by continuously decreasing from ambient temperature at a rate of 3° C./min to a minimum temperature of […]. After 1 hour, the samples were rewarmed at a rate of 3° C./min by continuously increasing the temperature until a temperature of 18° C., was achieved. Thereafter an identical cooling and rewarming cycle was performed. After the second cooling cycle, the tissue pieces were further cultured in the culture medium for 1 day allowing continuous adaptation to an ambient temperature of 37° C. For analytical preparations the pericardial pieces were out and further processed. A direct TUNEL assay (Roche) was use for quantification of apoptosis, an annexin V/propidium iodide exclusion assay (Roche) was used to quantify the number of necrotic cells, and viability was determined by the WST-8 assay. Furthermore, the LDH release was quantified in the supernatants.
To rule out that cell death has been induced by ischemia or reperfusion (reoxygenation), in one series of experiments, a control sample was incubated with an all-caspase inhibitor (Q-VD-OPH, BioVision, USA) reconstituted in DMSO before the sample was exposed to cold.

[1] = test system: Human epithelial lung cells (A549); assay: Membrane protein mediated cytotoxicity (NaF) in epithelial cells, MTT assay; conditions: 10 and 50 μmol, 2 hours preincubation, NaF 1-8 mmol; compared with native FA
Method: Human epithelial lung cells (A549) were cultured and transferred to an isotonic medium. Cell suspensions were incubated with saline solution, native fatty acid (10 and 50 μmol), or nitro fatty acid (10 and 50 μmol) for 2 hours. Sodium fluoride (NaF) was added to achieve concentrations between 1 and 8 mmol. Cells were separated and washed after 24 hours of exposure. The MTT assay was used to evaluate apoptosis rates.

macrophages = assay: Foreign body model (fusion of macrophages, IL-4); type: cell-based; conditions: polymeric coating on stainless steel; compared with native FA; note: key: 0: not superior to native FA (control); +: Superior to native FA; ++: superior to both; +++: outstanding effect
Source text: Organisms react to the contact with a not completely biocompatible surface with a stereotypic chain of reactions. This is preceded by aggregation of plasmaproteins which initiate adhesion of monocytes. As a response to incompatibility, structural changes and fusion of those monocytes to form giant cells occur. The formation of giant cells is a key component in the development of a foreign body reaction. […] Predictability of foreign body reaction has been validated in an in-vitro model by monitoring fusion of macrophages in response to IL-4 exposition. Using this model a polymeric coating of a stainless steel support material containing variable amounts of nitro fatty acids or native fatty acids or just coated with the sole polymer were exposed to plasma with various concentrations of vitronectin.

Row | Compound | Relative effect on cold induced injury (pericardial strips) | Relative effect on NaF-induced cytotoxicity [1] | Relative efficacy in foreign body model (macrophages)
1 | 9,10-nitro-cis-oleic acid [compound 10] | + |  | 
2 | CCCCCCCC/C=C(/CCCCCCCC(=O)O)[N+](=O)[O-] [compound 1, 9-nitro cis-oleic acid] | ++ | ++ | 
3 | CCCCC/C=C\C/C(=C\CCCCCCCC(=O)O)[N+](=O)[O-] [compound 2, 10-nitro-cis-linoleic acid] | ++ | ++ | 
4 | CCCCCCCC/C(=C/CCCCCCCC(=O)O)[N+](=O)[O-] [compound 3, 10-nitro-cis-oleic acid] | + | + | 
5 | CC/C=C\C/C=C\C/C=C(/CCCCCCCC(=O)O)[N+](=O)[O-] [compound 6, 9-nitro-all-cis-9-12,15-octadecatrienoic acid] | ++ |  | 
6 | CCCCCCCCCCC/C=C(/CCCCC(=O)O)[N+](=O)[O-] [compound 21, 6-nitro-cis-6-octadecenoic acid] | + |  | +
7 | CCCCCC=CCC=C(CC=CC/C=C\CCCC(=O)O)[N+](=O)[O-] [compound 22, 11-nitro-cis-5,8,11,14-eicosatetraenoic acid] | ++ | ++ | ++
